Experimental findings from PMC8428848, “Ancient role of sulfakinin/cholecystokinin-type signalling in inhibitory regulation of feeding processes revealed in an echinoderm” (eLife, 2021) are described below.

Where “and” joins values, the source holds several entries; their conditions need not be identical. Equal entries are not always repeated. Square brackets hold non-standard residues; d marks the D form. Peptide text beside a SMILES is read from it. sY = N[C@@H](Cc1ccc(OS(=O)(=O)O)cc1)C(=O)O; pGlu = O=C1CC[C@@H](C(=O)O)N1

Assay [1] concerns affinity-purified rabbit antibodies to ArSK/CCK1. Kind of assay: ELISA specificity test of affinity-purified antibodies to ArSK/CCK1. It is filed as binding. Particulars: TEA fraction diluted 1:10; peptide 0.1 nmol (100 µl of 1 µM); mean of six replicates. The text has this: To generate antibodies to ArSK/CCK1, an N-terminally truncated peptide analog of ArSK/CCK1 with the addition of a reactive N-terminal lysine residue was synthesized (KY(SO3H)GHGLFW-NH2 , Peptide Protein Research Ltd, Fareham, UK). To generate antibodies to ArSK/CCKR, a peptide corresponding to the C-terminal 15 amino acids of ArSK/CCK-R with addition of an N-terminal reactive lysine residue was synthesized (KPSPTNYTNVSSDSSV, Peptide Protein Research Ltd, Fareham, UK). These peptides were conjugated to porcine thyroglobulin (Sigma-Aldrich, Gillingham, UK) as a carrier protein using 5% glutaraldehyde (Sigma-Aldrich, Gillingham, UK) in phosphate buffer (0.1 M; pH 7.2) and the conjugate was used for immunisation of a rabbit for ArSK/CCK1 (70-day protocol; Charles River Biologics, Romans, France) and a guinea pig for ArSK/CCKR (56-day protocol; Charles River Biologics, Romans, France). The antigens were emulsified in Freund’s complete adjuvant for primary immunisations (~100 nmol antigen peptide) and in Freund’s incomplete adjuvant for three booster immunisations (~50 nmol antigen peptide). The presence of antibodies to the antigen peptides in post-immunisation serum samples was assessed using an enzyme-linked immunosorbent assay (ELISA), in comparison with pre-immune serum (Figure 5—figure supplement 1a; Figure 6—figure supplement 1). Antibodies to the antigen peptides were purified from the final bleed antiserum by affinity purification using the AminoLink Plus Immobilization Kit (Thermo Fisher Scientific, Waltham, MA), with bound antibodies eluted using glycine elution buffer (6.3 ml of 100 mM glycine [VWR Chemicals, Leicestershire, UK] and 0.7 ml of Tris [1 M, pH = 7.0]) and […] (TEA) elution buffer (6.3 ml of TEA [Sigma-Aldrich, Gillingham, UK] and 0.7 ml of Tris [1 M, pH = 7.0]). Eluates were dialyzed and sodium azide (0.1%) was added for long-term storage of the affinity-purified antibodies at 4°C. The specificity of ArSK/CCK1 antibodies eluted with TEA, which were subsequently used for immunohistochemistry (see below), was assessed by ELISA by testing them at a concentration of 1:10 with the following synthetic peptides (100 µl at a concentration of 1 µM dissolved in carbonate/bicarbonate buffer [25 mM sodium carbonate, 25 mM sodium bicarbonate, pH = 9.8]): ArSK/CCK1, ArSK/CCK2, ArSK/CCK2(ns) and the A. rubens luqin-type peptide ArLQ (Figure 5—figure supplement 1b). The rabbit antiserum to ArSK/CCK1 has been assigned the RRID:AB_2877176 and the guinea pig antiserum to ArSK/CCKR has been assigned the RRID:AB_2891354.
A general note: In an ELISA, binding on a coated surface is turned into a signal by an enzyme label.

The next assay relates to tube foot preparations. The experiment in a line: In vitro contraction of tube foot preparations (organ bath). Also on record: species or system Asterias rubens. The note with it: for contraction of tube foot preparations: in vitro, 1 nM to 1 µM, n = 8–10; for mean effect on tube foot preparations, % of the effect of 10 µM acetylcholine: peptide 1 µM. As for the experimental part: Effects of peptides on preparations were tested and recorded using an isotonic transducer (MLT0015, ADInstruments Pty Ltd) connected to a bridge amplifier (FE221 Bridge Amp, ADInstruments Pty Ltd) linked to PowerLab data acquisition hardware (2/36, ADInstruments Pty Ltd). Data were collected and analysed using LabChart (RRID:SCR_017551; v8.0.7) software installed on a laptop computer (Lenovo E540, Windows 7 Professional). Stock solutions of synthetic peptides were prepared in distilled water and added to the organ bath to achieve final concentrations ranging from 0.1 nM to 1 μM. To assess the viability of preparations and to enable normalization of responses to ArSK/CCK1 or ArSK/CCK2, the starfish neuropeptide NGFFYamide (100 nM) was tested on cardiac stomach preparations and acetylcholine (10 µM) was tested on tube foot and apical muscle preparations. To assess the importance of tyrosine sulphation for peptide bioactivity, a non-sulphated analog of ArSK/CCK2 (ArSK/CCK2(ns)) was also tested on cardiac stomach (n = 5), tube foot, and apical muscle preparations (data not shown).

The subject of another assay is Asterias rubens. The experiment in a line: In vivo feeding behaviour on mussels after injection. The note with it: for time to touch (first contact with a mussel) / time to enclose (time to adopt a feeding posture): 10 nmol (10 µl of 1 mM) injected; for time to touch (first contact with a mussel) / time to enclose (time to adopt a feeding posture) / starfish proceeding to a feeding posture after the first touch: compared with water-injected controls; for time to enclose (time to adopt a feeding posture): p = 0.0523 ArSK/CCK1, p < 0.05 ArSK/CCK2; for starfish proceeding to a feeding posture after the first touch / number of advances to touch the mussel / number of starfish that did not initiate feeding within the 5 hr (300 min) observation period: 10 nmol injected; for starfish proceeding to a feeding posture after the first touch: Fisher's exact test; for number of advances to touch the mussel: data not shown; for number of starfish that did not initiate feeding within the 5 hr (300 min) observation period: n = 11 ArSK/CCK1, n = 19 ArSK/CCK2; for time to enclose / time to touch: individual animals. An excerpt: Here, the same methods employed by [Tinoco et al., 2018] were used to investigate if ArSK/CCK1 and/or ArSK/CCK2 affect feeding behaviour in starfish. […] Then, starfish were fasted for 24 days and transferred to and kept individually in Plexiglas aquaria, as described previously ([Tinoco et al., 2018]). […] The time taken for starfish to make first contact with a mussel (tube feet touching the mussel or time to touch the mussel), the number of attempts to touch, as well as the time to enclose the mussel (indicated by a feeding posture) were recorded. Starfish that were feeding after 24 hr were included in data analysis and any starfish in the control or test group that had not fed on a mussel after 24 hr were discarded from data analysis.

[2] abbreviates: feeding experiments, count of animals.
Setting [3] is: feeding experiments, percentage of animals.
The mark [4] stands for this setting: 10 µl of 1 mM peptide injected, n = 11.

Regarding `CC(C)C[C@H](NC(=O)CNC(=O)[C@H](Cc1ccccc1)NC(=O)CNC(=O)[C@H](Cc1ccc(O)cc1)NC(=O)[C@H](CCC(N)=O)NC(=O)[C@H](CC(=O)O)NC(=O)[C@H](CC(=O)O)NC(=O)CNC(=O)CN)C(=O)N[C@@H](Cc1ccccc1)C(=O)N[C@@H](Cc1ccccc1)C(N)=O` [ArSK/CCK2(ns)] (H-GGDDQYGFGLFF-NH2; N-terminus assumed), in assay [1], the “ELISA reactivity (optical density) with antibodies to ArSK/CCK1” value (shortened to “ELISA reactivity … to ArSK/CCK1”) is “do not cross-react”. Moreover, the “contraction of tube foot preparations” value with tube foot preparations was “did not cause contraction”.
With `CC(C)C[C@H](NC(=O)CNC(=O)[C@H](Cc1ccccc1)NC(=O)CNC(=O)[C@H](Cc1ccc(OS(=O)(=O)O)cc1)NC(=O)[C@H](CCC(N)=O)NC(=O)[C@H](CC(=O)O)NC(=O)[C@H](CC(=O)O)NC(=O)CNC(=O)CN)C(=O)N[C@@H](Cc1ccccc1)C(=O)N[C@@H](Cc1ccccc1)C(N)=O` [ArSK/CCK2] (H-GGDDQ[sY]GFGLFF-NH2; N-terminus assumed), in the assay on Asterias rubens, the “time to touch (first contact with a mussel)” value is on record as “did not affect”, the “time to enclose (time to adopt a feeding posture)” value is listed as “higher”, the “starfish proceeding to a feeding posture after the first touch” value is “fewer” and the “number of advances to touch the mussel” value is “increased number of advances”. In addition, the “number of starfish that did not initiate feeding within the 5 hr (300 min) observation period” value in the assay on Asterias rubens is on record as “two”. Further, in the assay on Asterias rubens (setting [2]), the “Number of animals, First touch success” value is on record as 12 and the “Number of animals, Unsuccessful first touch” value worked out at 6. Also, in the assay on Asterias rubens (feeding experiments), the time to enclose was 11.3 min and 199.3 min and 190.75 min and 21 min and 27 min and 53 min and 49 min and 10 min and 237 min and 12 min and 17 min and 300 min and 77 min and 88 min and 22 min and 50 min and 8 min and 46 min; the time to touch is 9 min and 6.9 min and 13.1 min and 13 min and 24 min and 49 min and 46 min and 6 min and 11 min and 7 min and 14 min and 36 min and 3 min and 18 min and 45 min and 4 min and 40 min. In the assay on Asterias rubens (setting [3]), the “Percentage, First touch success” value came out at 67% and the “Percentage, Unsuccessful first touch” value was 33%. Moreover, the “ELISA reactivity … to ArSK/CCK1” value in assay [1] is “do not cross-react”. Besides, in the assay on tube foot preparations, the “contraction of tube foot preparations” value is on record as “concentration-dependent contraction” and the “mean effect on tube foot preparations, % of the effect of 10 µM acetylcholine” value is recorded as ~ 110%.
With `CC(C)C[C@H](NC(=O)CNC(=O)[C@H](Cc1c[nH]cn1)NC(=O)CNC(=O)[C@H](Cc1ccc(OS(=O)(=O)O)cc1)NC(=O)[C@H](CC(=O)O)NC(=O)[C@H](CC(=O)O)NC(=O)[C@@H](NC(=O)[C@H](CCCCN)NC(=O)[C@H](CO)NC(=O)[C@@H]1CCC(=O)N1)C(C)C)C(=O)N[C@@H](Cc1ccccc1)C(=O)N[C@@H](Cc1c[nH]c2ccccc12)C(N)=O` [ArSK/CCK1] ([pGlu]SKVDD[sY]GHGLFW-NH2), in the assay on Asterias rubens, the “time to touch (first contact with a mussel)” value is given as “did not affect”, the “time to enclose (time to adopt a feeding posture)” value is recorded as “only a tendency to an increased time to enclose”, the “starfish proceeding to a feeding posture after the first touch” value was “fewer” and the “number of advances to touch the mussel” value was “increased number of advances”. Also, the “number of starfish that did not initiate feeding within the 5 hr (300 min) observation period” value with Asterias rubens is “four”. In addition, in the assay with Asterias rubens (setting [4]), the “Number of animals, First touch success” value came to 4; the “Number of animals, Unsuccessful first touch” value came out at 7; the “Percentage, First touch success” value worked out at 36 Percentage; the “Percentage, Unsuccessful first touch” value was 64 Percentage. Also, in the assay with Asterias rubens (one line each, 10 µl of 1 mM peptide injected), the “time to touch” value was 10 min and 16 min and 8 min and 4 min and 2 min and 23 min and 19 min and 6 min and 3 min and 22 min and 48 min. The “time to enclose” value in the assay with Asterias rubens (one line each, 10 µl of 1 mM peptide injected, observation period 300 min) is 215 min and 29 min and 4 min and 24 min and 10 min and 6 min and 144 min. In addition, the “ELISA reactivity … to ArSK/CCK1” value in assay [1] was “above the OD value for the negative control”. The “effectiveness on tube foot preparations compared with ArSK/CCK2” value with tube foot preparations (25 and 100 nM, Bonferroni's test p < 0.01 and 0.05) is on record as “significantly more effective than ArSK/CCK2”. Besides, in the assay with tube foot preparations, the “contraction of tube foot preparations” value is listed as “concentration-dependent contraction” and the “mean effect on tube foot preparations, % of the effect of 10 µM acetylcholine” value was ~ 220%.
